Experimental data: patent US5837698A, “Steroid nitrite and nitrate ester derivatives useful as anti-inflammatory drugs” (G. D. Searle & Co., priority 1996, dated 1998)

Experiments:
[1] = system: prostaglandin E2 (PGE2) synthesis in Human fetal fibroblast cells; experiment: In vitro inhibition of prostaglandin E2 (PGE2) synthesis assay; type: cell-based; details: IL-1 for 16 hours, compound 10 uM given with IL-1, ELISA, Basal 0.6, IL-1 alone 9.4
Method: B. In vitro inhibiton of prostaglandin E2 (PGE2) synthesis assay: Human fetal fibroblast cells were treated with IL-1 for 16 hours and prostaglandin E2 was measured by an ELISA. Compounds were given at the time of addition of IL-1. This assay provides an in vitro assessment of the compound to block the induction of the proinflammatory agent prostaglandin E2 (PGE2): […]

[2] = system: rat aortic ring smooth muscle; experiment: In vitro smooth muscle relaxant activity assay (rat aortic ring) in the presence of Cys and L-NAME; type: cell-based; details: for EC50: rat aortic rings precontracted with phenylephrine (0.3 uM), in the presence of cysteine and L-NAME, read-out: Relaxation, EC50
Method: The rat aortic ring assay was utilized as a bioassay to measure the relaxant activity. The rings were precontracted with phenylephrine (0.3 uM) and subsequently compounds were added to the tissue bath in the presence of cysteine (Cys) and N^G -L-nitroarginine methyl ester (L-NAME): A.In vitro smooth muscle relaxant activity assay in the presence of Cys and L-NAME: […]

SMILES: C[C@@H]1C[C@H]2[C@@H]3CCC4=CC(=O)C=C[C@]4(C)[C@@]3(F)[C@@H](O)C[C@]2(C)[C@@]1(O)C(=O)CO [Dexamethasone, reference compound]
- PGE2 [1]: 0.6 ng

SMILES: CCC(=O)OCC(=O)[C@@]1(OC(=O)CC)[C@@H](C)C[C@H]2[C@@H]3CCC4=CC(=O)C=C[C@]4(C)[C@@]3(Cl)[C@@H](OC(=O)CCC(=O)O[C@H]3CO[C@H]4[C@@H]3OC[C@H]4O[N+](=O)[O-])C[C@@]21C [Example 1]
- EC50 [2]: > 10 µM
- PGE2 [1]: 0.5 ng

SMILES: C[C@]12C=CC(=O)C=C1CC[C@@H]1[C@@H]2[C@@H](O)C[C@@]2(C)[C@H]1CC[C@]2(O)C(=O)COC(=O)CCC(=O)O[C@H]1CO[C@H]2[C@@H]1OC[C@H]2O[N+](=O)[O-] [Example 21]
- EC50 [2]: 3 µM
- PGE2 [1]: 0.4 ng

SMILES: CCC(=O)OCC(=O)[C@@]1(OC(=O)CC)[C@@H](C)C[C@H]2[C@@H]3CCC4=CC(=O)C=C[C@]4(C)[C@@]3(Cl)[C@@H](O)C[C@@]21C [Beclomethasone-dipropionate, reference compound]
- smooth muscle relaxant activity (in words) ([2]; rat aortic ring, precontracted with phenylephrine, Cys and L-NAME): did not show any effect
- EC50 [2]: 100 µM
